Read-outs that look alike come from different tables or passages of the source.
Legend:
[1] = system: macrophage and neutrophil infiltration; experiment: Acute cigarette smoke induced cell infiltration in male Balb/c mice; format: in vivo; settings: acute CS; for ED50: oral
Description: Animals were acclimatized for seven days prior to the start of the experiment. Animals were randomly distributed to various groups based on their body weights. On day 1, mice were administered by test compound or vehicle by the oral route and after 30 mins test compound administration animals were placed in a whole body exposure box. The mice were exposed to the mainstream smoke of 6 cigarettes from day 1 to day 4. Exposure to the smoke of each cigarette lasted for 10 min (cigarettes were completely burned in the first two minutes and followed by an air flow with animal ventilator) followed by exposure for the next 20 min with fresh room air. After every second cigarette an additional break of 20 min with exposure to fresh room air was conducted. Control animals were exposed to the room air chamber. From day 1 to day 4 animals were administered test compound by the oral route. On day 5, 24 hours after the last cigarette smoke (CS) exposure. animals were exsanguinated under anaesthesia, and the trachea was cannulated and the lungs were lavaged with 0.5 ml aliquots of heparinised PBS (1 unit/ml) four times through a tracheal cannula (total volume 2 ml). Bronchioalveolar (BAL) collected was stored at 2-8° C. until assayed for total cell and differential leukocyte count. BAL fluid was centrifuged (500×g for 10 min) and the resulting cell pellet was resuspended in 0.5 ml of heparinised saline. The total number of white blood cells was determined in BAL fluid and blood using a blood cell counter and adjusted to 1×10^6 cell/ml. Differential cell count was calculated manually. Forty microliters of the cell suspension was centrifuged using cytospin 3 to prepare a cell smear. The cell smear was stained with a blood staining solution for differentiation and microscopically observed by identifying each cell according to its morphological characteristics. The number of each cell type among 300 white blood cells in the cell smear were determined and expressed as a percentage, and the number of neutrophils and macrophages in each BAL fluid were calculated.
The procedure for acute cigarette smoke induced cell infiltration in male Balb/c mice described in Example 1 was performed with Compound A1 and roflumilast

PI3K Delta = PI3K Delta (Homo sapiens, UniProt O00329); experiment: PI3K Delta enzyme inhibition; format: biochemical
IFNγ [2] = experiment: Con A+PMA induced IFNγ in PBMC; format: cell-based; settings: 10 nM alone
Description: (§1) PBMC from whole blood were isolated by density gradient using Histopaque and incubated with the desired concentration of inhibitor for 15 minutes. Cytokine release was induced with the addition of Concanavalin A (25 μg/ml)+Phorbol Myristate Acetate (50 ng/ml). Supernatant was collected after 20 hours and IFNγ was estimated using an ELISA kit.

TNFα [3] = experiment: LPS induced TNFα in human whole blood (HWB); format: cell-based; settings: 100 nM alone
Description: Freshly collected HWB was diluted with media and incubated with the desired concentration of inhibitor for 15 min. LPS (1 μg/ml) was added and then incubated for 24 hours. The supernatant was collected and TNFα estimated using an eBioscience TNFα ELISA kit.
Freshly collected HWB was diluted with media and incubated with the desired concentration of inhibitor for 15 minutes. LPS (1 μg/ml) was added and then incubated for 24 hours. The supernatant was collected and TNFα estimated using an eBioscience TNFα ELISA kit.

PI3K Gamma = PI3K Gamma (Homo sapiens, UniProt P48736); experiment: PI3K Gamma enzyme inhibition; format: biochemical
IFNγ [4] = experiment: Con A+PMA induced IFNγ in human whole blood (HWB); format: cell-based; settings: 10 nM alone
Description: as §1, with “Freshly collected HWB was diluted with media” for “PBMC from whole blood were isolated by density gradient using Histopaque”, “The supernatant” for “Supernatant”

TNFα [5] = experiment: LPS induced TNFα in THP-1 (human monocyte) cells; format: cell-based; settings: compound alone; THP-1 cells, LPS 1 μg/ml
Description: (§2) THP-1 represents a monocytic cell line that has elevated endogenous pAKT levels and secretes copious amounts of TNFα upon induction by LPS. Cells were plated at 150,000 cells per well. 10 nM of Compound A1 (final concentration) was added 15 minutes prior to the addition of roflumilast. LPS (1 μg/ml) was added and then incubated for 4 hours. The supernatant was collected after 20 hours and TNFα was estimated using an ELISA kit.

neutrophil infiltration = experiment: Lipopolysaccharide induced pulmonary neutrophilia in female Wistar rats; format: in vivo
Description: After the quarantine period, fasted animals were randomized and divided into groups depending on their body weights. Test compound was prepared as a suspension in a vehicle consisting of 0.5% methylcellulose in which Tween 80 was used as a suspending agent. Compounds or vehicle were administered by oral gavage in a volume of 10 mL/kg. Animals were anaesthetized with ketamine and LPS solution was administered intratracheally 30 minutes after compound administration at a dose of 1 mg/kg. Six hours after LPS instillation, animals were exsanguinated under anaesthesia, and the trachea was cannulated, and lungs were lavaged with 5-ml aliquots of heparinised PBS (1 unit/ml) four times through the tracheal cannula (total volume 20 ml). Bronchioalveolar (BAL) fluid was stored at 2-8° C. until assayed for total cell and differential leukocyte count. BAL fluid was centrifuged (500×g for 10 min) and the resulting cell pellet was resuspended in 0.5 ml of heparinised saline. The total numbers of white blood cells were determined in BAL fluid or blood using a cell counter and were adjusted to 1×10^6 cell/ml. Differential cell count was calculated manually. One hundred microliters of the cell suspension was centrifuged using cytospin 3 to prepare a cell smear. The cell smear was stained with a blood staining solution for differentiation and slides were microscopically observed to identify eosinophils according to their morphological characteristics. The number of each cell type among 300 white blood cells in the cell smear was determined and expressed as a percentage of total cells. The number of eosinophil in BALF was calculated.
The procedure for LPS induced pulmonary neutrophilia in female Wistar rats as described in Example 1 was performed with compound A1 and roflumilast.

TNFα [6] = experiment: LPS induced TNFα in MH-S (mouse alveolar macrophage) cells; format: cell-based
Description: as §2, with “MH-S” for “THP-1”, “mouse alveolar macrophage” for “monocytic”, “that” for “that has elevated endogenous pAKT levels and”

Sequence of PI3K Gamma (P48736 whole entry, species assumed): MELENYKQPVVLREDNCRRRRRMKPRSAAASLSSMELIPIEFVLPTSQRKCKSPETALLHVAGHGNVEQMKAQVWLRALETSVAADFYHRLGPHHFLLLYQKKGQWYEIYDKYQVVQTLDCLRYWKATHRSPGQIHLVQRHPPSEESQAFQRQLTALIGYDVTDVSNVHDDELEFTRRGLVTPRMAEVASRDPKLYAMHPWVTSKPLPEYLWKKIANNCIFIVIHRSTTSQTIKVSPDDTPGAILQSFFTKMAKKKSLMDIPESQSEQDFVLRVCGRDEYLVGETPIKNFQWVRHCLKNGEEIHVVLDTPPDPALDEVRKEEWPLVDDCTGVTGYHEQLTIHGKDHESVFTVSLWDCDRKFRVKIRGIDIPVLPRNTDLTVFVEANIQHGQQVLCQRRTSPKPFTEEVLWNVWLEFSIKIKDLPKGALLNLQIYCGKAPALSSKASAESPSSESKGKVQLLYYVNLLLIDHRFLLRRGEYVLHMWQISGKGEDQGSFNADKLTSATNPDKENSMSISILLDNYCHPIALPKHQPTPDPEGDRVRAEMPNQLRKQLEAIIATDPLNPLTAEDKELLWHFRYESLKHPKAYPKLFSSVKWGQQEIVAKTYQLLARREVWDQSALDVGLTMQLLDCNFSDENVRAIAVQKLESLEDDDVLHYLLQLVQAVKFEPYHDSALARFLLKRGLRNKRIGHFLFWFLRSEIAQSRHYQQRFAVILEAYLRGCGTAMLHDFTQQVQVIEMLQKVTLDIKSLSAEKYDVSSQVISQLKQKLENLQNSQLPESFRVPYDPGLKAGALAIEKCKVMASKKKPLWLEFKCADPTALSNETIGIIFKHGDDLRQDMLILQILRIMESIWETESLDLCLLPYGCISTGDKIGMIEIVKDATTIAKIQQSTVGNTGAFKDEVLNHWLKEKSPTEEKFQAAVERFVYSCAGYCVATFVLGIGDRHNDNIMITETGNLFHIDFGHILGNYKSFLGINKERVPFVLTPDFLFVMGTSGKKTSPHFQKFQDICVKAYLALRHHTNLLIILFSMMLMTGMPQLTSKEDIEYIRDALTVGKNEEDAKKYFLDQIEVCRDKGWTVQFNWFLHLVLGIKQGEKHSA
Sequence of PI3K Delta (O00329 whole entry, species assumed): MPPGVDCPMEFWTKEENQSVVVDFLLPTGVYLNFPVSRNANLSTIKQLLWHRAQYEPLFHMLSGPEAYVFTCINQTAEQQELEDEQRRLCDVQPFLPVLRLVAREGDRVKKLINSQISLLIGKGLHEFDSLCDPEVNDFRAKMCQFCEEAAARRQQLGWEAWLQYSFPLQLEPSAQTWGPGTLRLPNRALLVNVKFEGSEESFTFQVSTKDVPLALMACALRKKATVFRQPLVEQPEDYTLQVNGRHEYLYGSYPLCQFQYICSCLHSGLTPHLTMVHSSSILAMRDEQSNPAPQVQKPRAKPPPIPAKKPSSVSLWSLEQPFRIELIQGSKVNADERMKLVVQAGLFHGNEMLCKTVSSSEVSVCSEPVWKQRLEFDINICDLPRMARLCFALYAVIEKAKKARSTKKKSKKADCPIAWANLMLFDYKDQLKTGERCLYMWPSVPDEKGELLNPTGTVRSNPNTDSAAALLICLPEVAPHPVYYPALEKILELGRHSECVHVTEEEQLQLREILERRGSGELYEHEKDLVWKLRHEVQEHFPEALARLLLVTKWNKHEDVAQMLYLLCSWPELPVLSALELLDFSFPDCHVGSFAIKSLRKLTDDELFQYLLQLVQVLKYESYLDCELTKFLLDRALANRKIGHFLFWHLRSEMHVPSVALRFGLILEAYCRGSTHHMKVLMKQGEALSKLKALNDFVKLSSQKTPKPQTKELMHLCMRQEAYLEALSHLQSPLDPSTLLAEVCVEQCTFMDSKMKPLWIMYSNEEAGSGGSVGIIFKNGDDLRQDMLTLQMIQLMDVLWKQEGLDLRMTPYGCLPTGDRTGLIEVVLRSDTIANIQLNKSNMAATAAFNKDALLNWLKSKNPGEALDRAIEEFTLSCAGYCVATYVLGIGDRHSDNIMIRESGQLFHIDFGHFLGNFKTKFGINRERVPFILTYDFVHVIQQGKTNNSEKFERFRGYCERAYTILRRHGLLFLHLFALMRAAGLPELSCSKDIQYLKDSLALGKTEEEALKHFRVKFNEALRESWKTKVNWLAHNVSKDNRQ
Sequence of PI3K Delta (P27986 whole entry partner, species assumed): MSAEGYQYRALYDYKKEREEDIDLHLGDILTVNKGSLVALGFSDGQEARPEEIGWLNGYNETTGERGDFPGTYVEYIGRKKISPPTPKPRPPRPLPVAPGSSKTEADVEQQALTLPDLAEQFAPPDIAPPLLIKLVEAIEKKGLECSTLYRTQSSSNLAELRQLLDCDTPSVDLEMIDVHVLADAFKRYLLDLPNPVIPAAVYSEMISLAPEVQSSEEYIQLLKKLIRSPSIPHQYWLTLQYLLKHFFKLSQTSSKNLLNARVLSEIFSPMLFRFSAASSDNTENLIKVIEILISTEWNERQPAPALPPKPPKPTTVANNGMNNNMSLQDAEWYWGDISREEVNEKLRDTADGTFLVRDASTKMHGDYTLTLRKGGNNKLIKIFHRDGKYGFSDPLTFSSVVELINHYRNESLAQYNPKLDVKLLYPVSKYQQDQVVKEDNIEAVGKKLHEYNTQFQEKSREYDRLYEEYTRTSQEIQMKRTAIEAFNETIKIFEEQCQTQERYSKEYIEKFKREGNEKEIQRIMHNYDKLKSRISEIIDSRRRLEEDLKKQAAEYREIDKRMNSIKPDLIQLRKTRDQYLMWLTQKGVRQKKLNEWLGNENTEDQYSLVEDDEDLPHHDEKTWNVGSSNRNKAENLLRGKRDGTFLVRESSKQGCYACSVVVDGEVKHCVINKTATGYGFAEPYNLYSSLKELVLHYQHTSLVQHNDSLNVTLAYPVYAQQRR

For CC(C)Oc1ccc(-c2nn(C(C)c3oc4cccc(F)c4c(=O)c3-c3cccc(F)c3)c3ncnc(N)c23)cc1F (single isomer, unassigned; (+)) [Compound A1, (+)-2-(1-(4-amino-3-(3-fluoro-4-isopropoxyphenyl)-1H-pyrazolo[3,4-d]pyrimidin-1-yl)ethyl)-5-fluoro-3-(3-fluorophenyl)-4H-chromen-4-one], the “percent inhibition of neutrophil infiltration” value ([1]; 0.1 mg/kg oral, mouse) was 14.76%, the “percent inhibition of macrophage infiltration” value ([1]; 0.1 mg/kg oral, mouse BAL) was 20.60% and the “percent inhibition of neutrophil infiltration” value ([1]; 0.3 mg/kg oral, mouse) was 51.31%. The “percent inhibition of macrophage infiltration” value ([1]; 0.3 mg/kg oral, dose-response study, mouse) was 75.19%, the “percent inhibition of macrophage infiltration” value ([1]; 1 mg/kg oral, mouse) was 93.11% and the “percent inhibition of neutrophil infiltration” value ([1]; 1 mg/kg oral, mouse) was 112.83%. For the same compound, the ED50 ([1]; Macrophage, mouse, read-out: 50% inhibition (ED50) dose, macrophage infiltration) was 0.2 mg/kg, the ED50 ([1]; Neutrophil, mouse, read-out: dose of 50% inhibition (ED50) of neutrophil infiltration) was 0.26 mg/kg and the “inhibition of neutrophil infiltration” value ([1]; combination study, alone at 0.25 mg/kg, mouse) was 36.69%. For the same compound, the “inhibition of macrophage infiltration” value ([1]; combination study, alone at 0.3 mg/kg, mouse) was 31.33%, the IC50 (PI3K Delta) was under 40 nM and the “effect on IFNγ secretion” value (IFNγ [2]) was “did not affect IFNγ secretion”. The “effect on TNFα secretion” value (TNFα [3]) was “did not affect TNFα secretion”, the IC50 (PI3K Gamma) was under 40 nM and the “effect on IFNγ secretion” value (IFNγ [4]) was “did not affect IFNγ secretion”. For the same compound, the “inhibition of TNFα” value (TNFα [5]) was “dose-dependently inhibited TNFα”, the “percent inhibition of neutrophil infiltration” value (neutrophil infiltration; 0.1 mg/kg oral, rat BAL fluid 6 h after LPS) was 17.83% and the “percent inhibition of neutrophil infiltration” value (neutrophil infiltration; 1 mg/kg oral, dose-response study, rat) was 51.76%. For the same compound, the “percent inhibition of neutrophil infiltration” value (neutrophil infiltration; 10 mg/kg oral, rat) was 70.21%, the ED50 (neutrophil infiltration; Neutrophil, oral, rat LPS pulmonary neutrophilia, read-out: 50% inhibition (ED50) dose, neutrophil infiltration) was 1.3 mg/kg and the “inhibition of neutrophil infiltration” value (neutrophil infiltration; combination study, alone at 1.3 mg/kg, rat) was 43.02%. The “decrease in TNFα secretion” value (TNFα [6]; 15 nM alone) was about 10% and the “inhibition of TNFα” value (TNFα [6]; compound alone, LPS 1 μg/ml) was “dose-dependently inhibited TNFα”.

From US10413532B2, “Pharmaceutical compositions containing a PDE4 inhibitor and a PI3 delta or dual PI3 delta-gamma kinase inhibitor” (Rhizen Pharmaceuticals SA, priority 2012, dated 2019)
